According to article PMC7604503, “Cyclic peptides can engage a single binding pocket through highly divergent modes” (Proceedings of the National Academy of Sciences of the …, 2020):
Where a SMILES comes first, the peptide text is derived from it. Bridges are numbered along the chain shown (N, C = ends).

How the values were obtained:
Experiment in all cases: BROMOscan competition binding assay (BromoMAX, Eurofins DiscoverX)
ATAD2A = molecular target: T1, ATAD2A (Homo sapiens, UniProt Q6PL18); settings: for Percent Control ATAD2A: compound concentration 1000 nM, lower percentage control = stronger affinity
T1 construct: purchased Eurofins DiscoverX (BROMOscan, BromoMAX)
T1 sequence (Q6PL18 1-1390): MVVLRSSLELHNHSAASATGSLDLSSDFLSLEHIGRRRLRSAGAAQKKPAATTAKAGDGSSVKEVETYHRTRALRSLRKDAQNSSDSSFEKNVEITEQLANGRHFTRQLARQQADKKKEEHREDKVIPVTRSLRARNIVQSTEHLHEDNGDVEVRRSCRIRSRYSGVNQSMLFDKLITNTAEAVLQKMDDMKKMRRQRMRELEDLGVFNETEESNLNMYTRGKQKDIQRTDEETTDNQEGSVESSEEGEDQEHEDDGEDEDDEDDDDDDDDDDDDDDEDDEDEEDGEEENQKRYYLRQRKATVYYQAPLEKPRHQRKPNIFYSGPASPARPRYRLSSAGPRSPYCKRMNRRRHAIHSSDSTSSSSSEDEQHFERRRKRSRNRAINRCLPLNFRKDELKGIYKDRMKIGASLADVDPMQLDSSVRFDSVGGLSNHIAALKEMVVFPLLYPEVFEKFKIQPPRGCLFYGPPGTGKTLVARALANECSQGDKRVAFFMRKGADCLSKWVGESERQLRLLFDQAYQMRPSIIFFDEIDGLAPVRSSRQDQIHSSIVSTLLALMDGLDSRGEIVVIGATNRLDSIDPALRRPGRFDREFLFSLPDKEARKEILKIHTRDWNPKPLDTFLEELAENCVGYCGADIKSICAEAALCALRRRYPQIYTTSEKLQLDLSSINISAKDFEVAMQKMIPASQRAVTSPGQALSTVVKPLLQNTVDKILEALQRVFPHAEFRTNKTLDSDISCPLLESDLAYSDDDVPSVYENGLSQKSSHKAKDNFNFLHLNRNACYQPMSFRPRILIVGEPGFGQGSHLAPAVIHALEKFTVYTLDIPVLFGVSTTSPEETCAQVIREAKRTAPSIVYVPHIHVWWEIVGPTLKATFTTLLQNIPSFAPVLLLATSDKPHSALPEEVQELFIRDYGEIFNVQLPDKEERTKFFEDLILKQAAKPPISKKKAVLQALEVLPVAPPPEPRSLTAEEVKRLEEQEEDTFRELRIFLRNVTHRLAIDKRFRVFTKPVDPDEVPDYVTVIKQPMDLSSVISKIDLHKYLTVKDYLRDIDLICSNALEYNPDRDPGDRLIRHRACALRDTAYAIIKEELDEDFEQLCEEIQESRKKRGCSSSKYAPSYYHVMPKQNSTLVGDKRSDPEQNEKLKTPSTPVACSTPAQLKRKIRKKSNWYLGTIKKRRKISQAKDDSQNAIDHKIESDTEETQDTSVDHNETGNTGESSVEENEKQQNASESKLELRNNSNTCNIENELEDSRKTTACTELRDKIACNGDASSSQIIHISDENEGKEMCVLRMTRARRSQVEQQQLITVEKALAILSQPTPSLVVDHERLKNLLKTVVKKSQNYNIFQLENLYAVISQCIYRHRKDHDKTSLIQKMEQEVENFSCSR

BRD4(2) = molecular target: T2, BRD4(2) (Homo sapiens, UniProt O60885); settings: for Percent Control BRD4(2): compound concentration 1000 nM, lower percentage control = stronger affinity
T2 construct: BRD4(2); purchased Eurofins DiscoverX (BROMOscan, BromoMAX)

BRPF3 = molecular target: T3, BRPF3 (Homo sapiens, UniProt Q9ULD4); settings: for Percent Control BRPF3: compound concentration 1000 nM, lower percentage control = stronger affinity
T3 construct: purchased Eurofins DiscoverX (BROMOscan, BromoMAX)
T3 sequence (Q9ULD4 1-1205): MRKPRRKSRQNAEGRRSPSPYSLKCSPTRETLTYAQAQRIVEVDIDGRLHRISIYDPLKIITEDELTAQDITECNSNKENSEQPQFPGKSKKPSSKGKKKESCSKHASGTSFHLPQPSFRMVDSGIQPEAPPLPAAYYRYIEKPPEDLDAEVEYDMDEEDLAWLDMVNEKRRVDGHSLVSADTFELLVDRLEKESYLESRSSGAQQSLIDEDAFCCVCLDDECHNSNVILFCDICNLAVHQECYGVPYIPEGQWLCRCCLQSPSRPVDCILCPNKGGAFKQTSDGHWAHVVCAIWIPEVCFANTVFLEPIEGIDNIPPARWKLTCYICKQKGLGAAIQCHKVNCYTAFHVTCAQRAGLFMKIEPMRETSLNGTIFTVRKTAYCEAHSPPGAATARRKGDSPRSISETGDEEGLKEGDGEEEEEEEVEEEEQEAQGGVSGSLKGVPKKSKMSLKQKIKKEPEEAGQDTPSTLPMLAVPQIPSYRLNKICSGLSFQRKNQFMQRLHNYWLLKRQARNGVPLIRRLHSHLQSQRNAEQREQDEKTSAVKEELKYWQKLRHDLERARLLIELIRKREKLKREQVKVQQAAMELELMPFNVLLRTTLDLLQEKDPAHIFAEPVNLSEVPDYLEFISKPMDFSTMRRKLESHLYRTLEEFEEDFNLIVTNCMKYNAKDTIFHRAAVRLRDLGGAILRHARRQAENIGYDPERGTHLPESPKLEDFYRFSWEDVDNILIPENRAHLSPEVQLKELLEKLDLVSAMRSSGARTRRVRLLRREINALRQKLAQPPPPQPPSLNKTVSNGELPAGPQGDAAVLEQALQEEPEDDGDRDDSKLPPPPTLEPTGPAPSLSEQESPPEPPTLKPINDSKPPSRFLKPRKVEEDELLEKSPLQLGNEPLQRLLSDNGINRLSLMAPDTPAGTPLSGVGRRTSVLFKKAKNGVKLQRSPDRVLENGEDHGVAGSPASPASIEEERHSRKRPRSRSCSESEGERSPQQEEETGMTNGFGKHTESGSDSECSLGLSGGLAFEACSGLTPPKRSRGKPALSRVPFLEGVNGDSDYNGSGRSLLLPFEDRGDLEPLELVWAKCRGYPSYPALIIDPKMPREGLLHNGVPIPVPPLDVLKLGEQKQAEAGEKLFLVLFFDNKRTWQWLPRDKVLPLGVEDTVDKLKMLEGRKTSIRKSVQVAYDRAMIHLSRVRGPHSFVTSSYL

CREBBP = molecular target: T4, CREBBP (Homo sapiens, UniProt Q92793); settings: for Percent Control CREBBP: compound concentration 1000 nM, lower percentage control = stronger affinity
T4 construct: purchased Eurofins DiscoverX (BROMOscan, BromoMAX)
T4 sequence (Q92793 whole entry): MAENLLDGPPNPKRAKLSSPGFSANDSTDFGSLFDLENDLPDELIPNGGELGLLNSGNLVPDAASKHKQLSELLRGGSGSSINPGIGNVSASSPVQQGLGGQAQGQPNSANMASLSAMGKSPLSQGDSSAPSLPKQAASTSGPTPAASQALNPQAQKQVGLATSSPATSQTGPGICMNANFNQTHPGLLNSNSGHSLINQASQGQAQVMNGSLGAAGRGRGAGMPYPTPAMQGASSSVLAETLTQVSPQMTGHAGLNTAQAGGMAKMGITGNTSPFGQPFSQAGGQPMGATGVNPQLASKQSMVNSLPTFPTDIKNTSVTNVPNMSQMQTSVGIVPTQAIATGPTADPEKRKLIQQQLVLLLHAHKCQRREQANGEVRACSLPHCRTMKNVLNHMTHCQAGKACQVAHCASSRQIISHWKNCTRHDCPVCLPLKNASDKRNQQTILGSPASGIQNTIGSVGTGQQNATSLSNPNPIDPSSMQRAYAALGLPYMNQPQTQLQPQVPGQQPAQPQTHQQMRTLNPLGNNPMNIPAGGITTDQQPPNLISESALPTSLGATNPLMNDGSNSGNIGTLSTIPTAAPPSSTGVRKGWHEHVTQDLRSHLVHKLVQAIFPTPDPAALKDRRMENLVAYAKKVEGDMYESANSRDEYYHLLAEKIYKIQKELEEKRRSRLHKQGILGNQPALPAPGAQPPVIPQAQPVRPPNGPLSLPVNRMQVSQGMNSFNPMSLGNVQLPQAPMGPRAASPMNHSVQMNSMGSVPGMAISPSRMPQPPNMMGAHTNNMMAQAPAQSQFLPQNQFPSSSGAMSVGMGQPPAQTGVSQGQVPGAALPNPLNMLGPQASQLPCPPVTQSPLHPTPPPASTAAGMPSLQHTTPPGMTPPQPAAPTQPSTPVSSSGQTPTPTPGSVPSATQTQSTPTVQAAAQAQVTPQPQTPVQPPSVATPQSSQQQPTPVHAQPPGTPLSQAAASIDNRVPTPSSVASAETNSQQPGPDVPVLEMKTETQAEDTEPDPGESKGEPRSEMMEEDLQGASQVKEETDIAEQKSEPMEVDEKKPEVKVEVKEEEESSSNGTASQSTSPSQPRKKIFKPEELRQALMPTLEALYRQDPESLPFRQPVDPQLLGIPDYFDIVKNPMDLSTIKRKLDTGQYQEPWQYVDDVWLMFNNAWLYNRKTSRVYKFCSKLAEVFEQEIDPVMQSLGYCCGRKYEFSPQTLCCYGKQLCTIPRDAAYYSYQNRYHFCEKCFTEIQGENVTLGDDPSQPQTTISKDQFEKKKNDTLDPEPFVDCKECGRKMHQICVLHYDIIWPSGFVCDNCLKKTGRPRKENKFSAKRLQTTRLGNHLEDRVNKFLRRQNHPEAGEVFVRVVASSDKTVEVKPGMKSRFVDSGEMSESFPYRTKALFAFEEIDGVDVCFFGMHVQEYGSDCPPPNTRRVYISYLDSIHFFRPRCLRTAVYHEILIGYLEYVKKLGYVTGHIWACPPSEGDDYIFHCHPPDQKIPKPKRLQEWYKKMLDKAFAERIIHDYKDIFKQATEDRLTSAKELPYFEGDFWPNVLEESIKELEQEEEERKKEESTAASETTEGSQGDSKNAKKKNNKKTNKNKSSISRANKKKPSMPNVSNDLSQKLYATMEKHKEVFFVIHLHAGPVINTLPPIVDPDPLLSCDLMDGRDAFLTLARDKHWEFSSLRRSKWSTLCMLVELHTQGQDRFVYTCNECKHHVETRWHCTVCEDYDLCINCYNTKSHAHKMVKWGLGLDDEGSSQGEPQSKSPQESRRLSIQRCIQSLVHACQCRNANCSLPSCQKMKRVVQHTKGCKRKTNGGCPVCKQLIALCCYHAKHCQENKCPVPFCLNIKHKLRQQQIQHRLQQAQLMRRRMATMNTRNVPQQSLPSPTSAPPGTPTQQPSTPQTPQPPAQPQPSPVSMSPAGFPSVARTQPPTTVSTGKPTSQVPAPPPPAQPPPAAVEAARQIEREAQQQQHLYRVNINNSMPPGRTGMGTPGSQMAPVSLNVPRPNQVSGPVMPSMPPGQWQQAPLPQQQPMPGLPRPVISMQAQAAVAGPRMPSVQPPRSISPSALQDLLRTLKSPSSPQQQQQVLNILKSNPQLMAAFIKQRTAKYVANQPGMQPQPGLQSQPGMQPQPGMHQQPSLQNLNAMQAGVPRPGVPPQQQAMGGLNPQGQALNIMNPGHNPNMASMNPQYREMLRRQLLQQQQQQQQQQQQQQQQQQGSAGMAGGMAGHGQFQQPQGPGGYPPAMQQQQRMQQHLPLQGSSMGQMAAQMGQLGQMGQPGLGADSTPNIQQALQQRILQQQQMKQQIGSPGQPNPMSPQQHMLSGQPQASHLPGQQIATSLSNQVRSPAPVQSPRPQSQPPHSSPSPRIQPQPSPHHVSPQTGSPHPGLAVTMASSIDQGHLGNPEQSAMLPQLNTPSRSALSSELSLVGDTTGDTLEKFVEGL

TAF1(2) = molecular target: T5, TAF1(2) (Homo sapiens, UniProt P21675); settings: for Percent Control TAF1(2): compound concentration 1000 nM, lower percentage control = stronger affinity
T5 construct: TAF1(2); purchased Eurofins DiscoverX (BROMOscan, BromoMAX)
T5 sequence (P21675 1521-1656 limits assumed): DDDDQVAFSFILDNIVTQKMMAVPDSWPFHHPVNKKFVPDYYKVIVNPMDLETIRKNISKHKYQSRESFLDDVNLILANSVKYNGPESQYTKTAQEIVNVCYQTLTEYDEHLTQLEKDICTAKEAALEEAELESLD

Structure (SMILES)	Percent Control ATAD2A (ATAD2A)	Percent Control BRD4(2) (BRD4(2))	Percent Control BRPF3 (BRPF3)	Percent Control CREBBP (CREBBP)	Percent Control TAF1(2) (TAF1(2))	percent of control binding at 1 µM (ATAD2A)	remaining binding at 1 µM (BRD4(2); read-out: Percent Control BRD4(2))	remaining binding at 1 µM (BRPF3; read-out: Percent Control BRPF3)	remaining binding at 1 µM (CREBBP; read-out: Percent Control CREBBP)	percent of control binding at 1 µM (TAF1(2))
CC[C@H](C)[C@@H]1NC(=O)[C@H]([C@@H](C)O)NC(=O)[C@H](CCCCN)NC(=O)[C@H](Cc2c[nH]c3ccccc23)NC(=O)CSC[C@@H](C(N)=O)NC(=O)[C@H](CCC(N)=O)NC(=O)[C@H](CCCCNC(C)=O)NC(=O)[C@H]([C@@H](C)O)NC(=O)[C@H](CCCNC(=N)N)NC(=O)[C@H](Cc2c[nH]c3ccccc23)NC(=O)[C@H]([C@@H](C)O)NC(=O)[C@H](CCCCNC(C)=O)NC(=O)CNC(=O)[C@H](CCCCNC(C)=O)NC1=O [3.1B] ({CH2CO}-WKTIK(Ac)GK(Ac)TWRTK(Ac)QC-NH2; thioether N-14)	92%	99%	100%	100%	82%					
CC[C@H](C)[C@@H]1NC(=O)[C@H](Cc2c[nH]c3ccccc23)NC(=O)[C@H](Cc2c[nH]c3ccccc23)NC(=O)CSC[C@@H](C(N)=O)NC(=O)CNC(=O)[C@H](CCCCNC(C)=O)NC(=O)[C@H](CCCCN)NC(=O)[C@H](C(C)C)NC(=O)[C@H](CCCCNC(C)=O)NC(=O)[C@@H]2CCCN2C(=O)[C@H]([C@@H](C)CC)NC1=O [3.1C] ({CH2CO}-WWIIPK(Ac)VKK(Ac)GC-NH2; thioether N-11)	92%	13%	95%	100%	79%					
CC[C@H](C)[C@H](NC(=O)[C@H](CCCNC(=N)N)NC(=O)[C@H](CCCCNC(C)=O)NC(=O)[C@H](CCCNC(=N)N)NC(=O)[C@H](CC(C)C)NC(=O)[C@@H]1CSCC(=O)N[C@@H](Cc2c[nH]c3ccccc23)C(=O)N[C@@H](CCCCNC(C)=O)C(=O)NCC(=O)N[C@@H](Cc2ccc(O)cc2)C(=O)N[C@@H](CC(C)C)C(=O)N1)C(=O)N[C@@H](CCC(N)=O)C(=O)N[C@@H](CCCNC(=N)N)C(=O)N[C@H](C(=O)N[C@@H](Cc1ccc(O)cc1)C(=O)N[C@@H](CC(N)=O)C(N)=O)[C@@H](C)O [4.2C] ({CH2CO}-WK(Ac)GYLCLRK(Ac)RIQRTYN-NH2; thioether N-6)						85%	24%	92%	100%	67%
